{"source": "ChEMBL document CHEMBL3351802", "about": "“Rupestonic acids B-G, NO inhibitory sesquiterpenoids from Artemisia rupestris” (Bioorg Med Chem Lett, 2014)", "key": {"[1]": {"experiment": "Cytotoxicity against LPS-stimulated […] cells assessed as cell viability at 40 uM by MTT assay", "format": "cell-based, BV-2", "conditions": "read-out: Activity"}, "BV-2": {"test_system": "BV-2", "experiment": "Inhibition of LPS-stimulated NO production in […] cells after 24 hrs by Griess assay", "format": "functional, cell-based", "conditions": "Mus musculus, BV-2, 24 h"}}, "note": "pIC50: −log10 of the molar value."}
{"compound": "C=C(C(=O)O)[C@@H]1CC[C@H](C)[C@@]2(O)CC(=O)C(C)=C2C1", "values": [{"measurement": "viability at 40 µM", "setting": "[1]", "result": 83.4, "unit": "%"}, {"measurement": "pIC50", "setting": "BV-2", "result": 4.54}]}
{"compound": "C=C(C(=O)O)[C@@H]1CC[C@H](C)[C@@H]2CC[C@](C)(O)[C@@]2(O)C1", "values": [{"measurement": "viability at 40 µM", "setting": "[1]", "result": 78.8, "unit": "%"}, {"measurement": "pIC50", "setting": "BV-2", "result": 5.59}]}
{"compound": "CC1=C2C[C@H](C(=O)O)CC[C@H](C)[C@@H]2CC1=O", "values": [{"measurement": "viability at 40 µM", "setting": "[1]", "result": 77.6, "unit": "%"}, {"measurement": "pIC50", "setting": "BV-2", "result": 5.05}]}
{"compound": "C=C(C(=O)O)[C@@H]1CC[C@H](C)C2=C(C1)[C@](C)(O)CC2=O", "values": [{"measurement": "viability at 40 µM", "setting": "[1]", "result": 77, "unit": "%"}, {"measurement": "pIC50", "setting": "BV-2", "result": 4.61}]}
{"compound": "C=C(C(=O)O)[C@@H]1CC[C@H](C)[C@H]2C(=O)C=C(C)[C@]2(O)C1", "values": [{"measurement": "viability at 40 µM", "setting": "[1]", "result": 76.1, "unit": "%"}, {"measurement": "pIC50", "setting": "BV-2", "result": 4.69}]}
{"compound": "C=C(C(=O)O)[C@@H]1CC[C@H](C)[C@H](CCC(C)=O)C(=O)C1", "values": [{"measurement": "viability at 40 µM", "setting": "[1]", "result": 76.6, "unit": "%"}, {"measurement": "pIC50", "setting": "BV-2", "result": 5.66}]}
{"compound": "O=c1c(O)c(-c2ccc(O)c(O)c2)oc2cc(O)cc(O)c12", "note": "[QUERCETIN]", "values": [{"measurement": "viability at 40 µM", "setting": "[1]", "result": 97, "unit": "%"}, {"measurement": "pIC50", "setting": "BV-2", "result": 5.37}]}
